These results are taken from patent US9029359B2, “Heteroaryl Btk inhibitors” (Biogen Idec MA, Inc., priority 2009, dated 2015).

In this assay the target is T1, BTK (Homo sapiens, UniProt Q06187).
T1 construct: purchased Upstate 14-552
Briefly: In vitro BTK kinase assay: BTK-POLYGAT-LS ASSAY. In kind it is biochemical. The following applies: ATP 10 uM. The essentials: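 BTK phosphorylation of polyGAT (100 nM final) with ATP at 10 μM final, 10 mM Tris-HCl pH 7.5 kinase buffer, quenched by EDTA after 30 min. Potency given as IC50.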

T1 sequence (Q06187 whole entry): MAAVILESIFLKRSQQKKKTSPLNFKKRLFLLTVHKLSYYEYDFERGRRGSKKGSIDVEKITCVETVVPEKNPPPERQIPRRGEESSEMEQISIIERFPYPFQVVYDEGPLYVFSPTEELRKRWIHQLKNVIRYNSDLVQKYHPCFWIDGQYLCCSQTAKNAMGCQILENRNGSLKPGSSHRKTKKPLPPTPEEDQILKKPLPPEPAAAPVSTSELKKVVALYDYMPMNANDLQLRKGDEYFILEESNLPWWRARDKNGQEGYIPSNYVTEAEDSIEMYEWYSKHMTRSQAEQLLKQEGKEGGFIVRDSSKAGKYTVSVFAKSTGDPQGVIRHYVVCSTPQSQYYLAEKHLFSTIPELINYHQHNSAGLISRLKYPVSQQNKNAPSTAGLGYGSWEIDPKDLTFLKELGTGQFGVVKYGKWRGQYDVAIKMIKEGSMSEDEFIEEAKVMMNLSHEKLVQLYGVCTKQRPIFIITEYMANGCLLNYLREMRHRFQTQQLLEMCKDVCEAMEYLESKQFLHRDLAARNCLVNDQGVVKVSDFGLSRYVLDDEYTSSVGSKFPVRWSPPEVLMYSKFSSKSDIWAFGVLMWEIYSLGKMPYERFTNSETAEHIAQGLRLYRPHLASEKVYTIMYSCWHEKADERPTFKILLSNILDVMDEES

Turning to `O=C(CNc1ccccc1S(=O)(=O)N1CCOCC1)N[C@@H]1CCCN(c2ncnc3[nH]ccc23)C1` [Example 243], the IC50 is below 100 nM.

`O=C(CNc1ccccc1OC1CCCC1)N[C@@H]1CCCN(c2ncnc3[nH]ncc23)C1` [Example 245] showed an IC50 below 100 nM.

Molecule `CN(C)S(=O)(=O)c1ccc(F)cc1NCC(=O)N[C@@H]1CCCN(c2ncnc3[nH]ccc23)C1` [Example 246] displayed an IC50 of 100 to 999 nM.

`O=C(CNc1cccc(Cl)c1)N[C@@H]1CCCN(c2ncnc3[nH]ncc23)C1` [Example 247] came in with an IC50 below 100 nM.

`CC(C)Oc1ccccc1NCC(=O)N[C@@H]1CCCN(c2ncnc3[nH]ccc23)C1` [Example 248] registered a half-maximal inhibitory concentration (IC50) of 100 to 999 nM.

`CC[C@@H](Nc1ccccc1C(C)C)C(=O)N[C@@H]1CCCN(c2ncnc3[nH]ccc23)C1` [Example 249] returned an IC50 of 100 to 999 nM.

As for `CC1(C)CCN(S(=O)(=O)c2ccccc2NCC(=O)N[C@@H]2CCCN(c3ncnc4[nH]ccc34)C2)CC1` [Example 250], the IC50 is below 100 nM.

For the molecule `O=C(CNc1ccccc1OC1CCCCCC1)N[C@@H]1CCCN(c2ncnc3[nH]ccc23)C1` [Example 251], the 50% inhibitory concentration (IC50) is below 100 nM.

`O=C(CNc1ccccc1C(=O)N1CCCCC1)N[C@@H]1CCCN(c2ncnc3[nH]ccc23)C1` [Example 253] yielded a concentration for half-maximal inhibition (IC50) of 100 to 999 nM.

`O=C(CNc1cccc2c1CCCC2)N[C@@H]1CCCN(c2ncnc3[nH]ccc23)C1` [Example 254] came in with a concentration for half-maximal inhibition (IC50) below 100 nM.

For the molecule `CC(C)(C)[C@@H](Nc1cccc(Cl)c1)C(=O)N[C@@H]1CCCN(c2ncnc3[nH]ccc23)C1` [Example 255], the IC50 was below 100 nM.

For the molecule `CC(C)(C)C1CCN(S(=O)(=O)c2ccccc2NCC(=O)N[C@@H]2CCCN(c3ncnc4[nH]ncc34)C2)CC1` [Example 256], the IC50 was below 100 nM.

As for `CCC[C@@H](Nc1ccccc1)C(=O)N[C@@H]1CCCN(c2ncnc3[nH]ccc23)C1` [Example 257], the IC50 fell in the range of 100 to 999 nM.

Take `Cc1ccc(NCC(=O)N[C@@H]2CCCN(c3ncnc4[nH]ccc34)C2)cc1C` [Example 258]: the half-maximal inhibitory concentration (IC50) lay within 100 to 999 nM.

`CCCc1ccccc1NCC(=O)N[C@@H]1CCCN(c2ncnc3[nH]ccc23)C1` [Example 259] showed a half-inhibitory concentration (IC50) below 100 nM.

On to `Cc1c(Cl)cccc1NCC(=O)N[C@@H]1CCCN(c2ncnc3[nH]ccc23)C1` [Example 261], for which the IC50 lay in the range of 100 to 999 nM.

Turning to `CCc1cccc(NCC(=O)N[C@@H]2CCCN(c3ncnc4[nH]ccc34)C2)c1` [Example 262], the concentration for half-maximal inhibition (IC50) is below 100 nM.

`CC(C)c1ccccc1N[C@@H](C(=O)N[C@@H]1CCCN(c2ncnc3[nH]ccc23)C1)C(C)C` [Example 263] showed a half-inhibitory concentration (IC50) of 100 to 999 nM.

As for `O=C(CNc1cc(F)cc(C(F)(F)F)c1)N[C@@H]1CCCN(c2ncnc3[nH]ccc23)C1` [Example 264], the half-maximal inhibitory concentration (IC50) was below 100 nM.

As to `CC(C)(C)C1CCN(S(=O)(=O)c2ccccc2NCC(=O)N[C@@H]2CCCN(c3ncnc4[nH]ccc34)C2)CC1` [Example 265], the IC50 is below 100 nM.

For `O=C(CNc1ccccc1OC1CCCCC1)N[C@@H]1CCCN(c2ncnc3[nH]ccc23)C1` [Example 266], the concentration for half-maximal inhibition (IC50) was below 100 nM.

Molecule `Cc1c(F)cccc1NCC(=O)N[C@@H]1CCCN(c2ncnc3[nH]ccc23)C1` [Example 267] returned an IC50 of 100 to 999 nM.

As to `Cc1ccccc1NCC(=O)N[C@@H]1CCCN(c2ncnc3[nH]ccc23)C1` [Example 268], the concentration for half-maximal inhibition (IC50) is 100 to 999 nM.

As for `CC(C)c1ccccc1N[C@H](C)C(=O)N[C@@H]1CCCN(c2ncnc3[nH]ccc23)C1` [Example 269], the IC50 is 100 to 999 nM.

As to `COc1ccc(C)cc1NCC(=O)N[C@@H]1CCCN(c2ncnc3[nH]ccc23)C1` [Example 270], the IC50 is below 100 nM.

Consider `Cc1c(Cl)cccc1NCC(=O)N[C@@H]1CCCN(c2ncnc3[nH]ccc23)C1` [Example 272], for which the IC50 is below 100 nM.

Turning to `Cc1ccc(F)cc1NCC(=O)N[C@@H]1CCCN(c2ncnc3[nH]ccc23)C1` [Example 273], the IC50 was below 100 nM.

For the molecule `O=C(CNc1cccc2ccccc12)N[C@@H]1CCCN(c2ncnc3[nH]ccc23)C1` [Example 274], the IC50 is 100 to 999 nM.

`O=C(CNc1ccc(F)c(I)c1)N[C@@H]1CCCN(c2ncnc3[nH]ccc23)C1` [Example 275] gave an IC50 of 100 to 999 nM.

With `O=C(CNc1ccccc1OCC(F)(F)F)N[C@@H]1CCCN(c2ncnc3[nH]ccc23)C1` [Example 277], the IC50 was 100 to 999 nM.

The molecule `O=C(CNc1cc(C(F)(F)F)ccc1N1CCCC1)N[C@@H]1CCCN(c2ncnc3[nH]ccc23)C1` [Example 278] came in with an IC50 of 100 to 999 nM.

`CCC[C@@H](Nc1ccccc1C(C)C)C(=O)N[C@@H]1CCCN(c2ncnc3[nH]ccc23)C1` [Example 279] came in with an IC50 of 100 to 999 nM.

Take `O=C(CNc1cccc(OC2CCCC2)c1)N[C@@H]1CCCN(c2ncnc3[nH]ccc23)C1` [Example 281]: the IC50 is 100 to 999 nM.

Take `Cc1cc(C)cc(NCC(=O)N[C@@H]2CCCN(c3ncnc4[nH]ccc34)C2)c1` [Example 282]: the half-inhibitory concentration (IC50) lay within 100 to 999 nM.

`CC(C)CCOc1cccc(NCC(=O)N[C@@H]2CCCN(c3ncnc4[nH]ccc34)C2)c1` [Example 283] yielded a concentration for half-maximal inhibition (IC50) below 100 nM.

In turn, `CC(C)c1ccccc1N[C@@H](C(=O)N[C@@H]1CCCN(c2ncnc3[nH]ccc23)C1)C1CC1` [Example 284] returned an IC50 of 100 to 999 nM.

`O=C(CNc1cc(F)c(F)c(F)c1)N[C@@H]1CCCN(c2ncnc3[nH]ccc23)C1` [Example 285] returned a half-inhibitory concentration (IC50) of 100 to 999 nM.

In the case of `O=C(CNc1ccc(Cl)c(Cl)c1)N[C@@H]1CCCN(c2ncnc3[nH]ccc23)C1` [Example 286], the concentration for half-maximal inhibition (IC50) lay within 100 to 999 nM.

In turn, `Cc1ccc(NCC(=O)N[C@@H]2CCCN(c3ncnc4[nH]ccc34)C2)cc1Cl` [Example 287] had an IC50 of 100 to 999 nM.

Molecule `CN(C)S(=O)(=O)c1ccccc1NCC(=O)N[C@@H]1CCCN(c2ncnc3[nH]ccc23)C1` [Example 288] displayed a 50% inhibitory concentration (IC50) of 100 to 999 nM.

Molecule `Cc1nc(-c2cccc(NCC(=O)N[C@@H]3CCCN(c4ncnc5[nH]ccc45)C3)c2)cs1` [Example 289] displayed an IC50 of 100 to 999 nM.

For the molecule `O=C(CNc1ccccc1N1CCCCC1)N[C@@H]1CCCN(c2ncnc3[nH]ccc23)C1` [Example 290], the half-inhibitory concentration (IC50) fell in the range of 100 to 999 nM.

With `Cc1cccc(NCC(=O)N[C@@H]2CCCN(c3ncnc4[nH]ccc34)C2)c1C` [Example 292], the half-inhibitory concentration (IC50) was 100 to 999 nM.

Regarding `Cc1ccc(NCC(=O)N[C@@H]2CCCN(c3ncnc4[nH]ccc34)C2)cc1F` [Example 293], the IC50 lay in the range of 100 to 999 nM.

The molecule `CC[C@@H](Nc1ccccc1C(C)C)C(=O)N[C@@H]1CCCN(c2ncnc3[nH]ncc23)C1` [Example 294] showed a half-inhibitory concentration (IC50) of 100 to 999 nM.

`Cc1ccc(Cl)cc1NCC(=O)N[C@@H]1CCCN(c2ncnc3[nH]ccc23)C1` [Example 295]: the half-maximal inhibitory concentration (IC50) lay in the range of 100 to 999 nM.

On to `CC(C)(O)[C@@H](Nc1cc(F)cc(Cl)c1)C(=O)N[C@@H]1CCCN(c2ncnc3[nH]ccc23)C1` [Example 296], for which the IC50 lay in the range of 100 to 999 nM.

For the molecule `N#Cc1cc(Cl)cc(NCC(=O)N[C@@H]2CCCN(c3ncnc4[nH]ccc34)C2)c1` [Example 297], the IC50 was 100 to 999 nM.

Take `O=C(CNc1cccc(Cl)c1Cl)N[C@@H]1CCCN(c2ncnc3[nH]ccc23)C1` [Example 299]: the IC50 was 100 to 999 nM.

Molecule `CC(C)c1ccccc1N[C@@H](C(=O)N[C@@H]1CCCN(c2ncnc3[nH]ccc23)C1)C(C)(C)C` [Example 300] showed a half-maximal inhibitory concentration (IC50) of 100 to 999 nM.

For `O=C(CNc1cccc(N2CCCC2)c1)N[C@@H]1CCCN(c2ncnc3[nH]ccc23)C1` [Example 301], the IC50 was in the range of 100 to 999 nM.

Molecule `Cc1ccc(C)n1-c1cccc(NCC(=O)N[C@@H]2CCCN(c3ncnc4[nH]ccc34)C2)c1` [Example 302] came in with a half-maximal inhibitory concentration (IC50) of 100 to 999 nM.

`O=C(CNc1cccc(-n2cccc2)c1)N[C@@H]1CCCN(c2ncnc3[nH]ccc23)C1` [Example 303]: the IC50 is 100 to 999 nM.

`O=C(CNc1cccc(-c2cn3ccccc3n2)c1)N[C@@H]1CCCN(c2ncnc3[nH]ccc23)C1` [Example 304] returned an IC50 of 100 to 999 nM.

`O=C(CNc1cccc(-c2cccs2)c1)N[C@@H]1CCCN(c2ncnc3[nH]ccc23)C1` [Example 305] returned a 50% inhibitory concentration (IC50) of 100 to 999 nM.

The molecule `C[C@H](O)[C@@H](Nc1cc(F)cc(Cl)c1)C(=O)N[C@@H]1CCCN(c2ncnc3[nH]ccc23)C1` [Example 306] had a half-maximal inhibitory concentration (IC50) of 100 to 999 nM.

`C[C@@H](O)[C@@H](Nc1cc(F)cc(Cl)c1)C(=O)N[C@@H]1CCCN(c2ncnc3[nH]ccc23)C1` [Example 307] registered an IC50 of 100 to 999 nM.

`O=C(CNc1cc(C(F)(F)F)cc(C(F)(F)F)c1)N[C@@H]1CCCN(c2ncnc3[nH]ccc23)C1` [Example 308] yielded an IC50 of 100 to 999 nM.

Molecule `COc1ccccc1NCC(=O)N[C@@H]1CCCN(c2ncnc3[nH]ccc23)C1` [Example 309] gave a 50% inhibitory concentration (IC50) of 100 to 999 nM.

In the case of `CCOc1ccccc1NCC(=O)N[C@@H]1CCCN(c2ncnc3[nH]ccc23)C1` [Example 310], the 50% inhibitory concentration (IC50) fell in the range of 100 to 999 nM.

On to `COc1ccc(Cl)cc1NCC(=O)N[C@@H]1CCCN(c2ncnc3[nH]ccc23)C1` [Example 312], for which the IC50 lay in the range of 100 to 999 nM.

The molecule `Cc1ccc(Cl)c(NCC(=O)N[C@@H]2CCCN(c3ncnc4[nH]ccc34)C2)c1` [Example 313] registered an IC50 of 100 to 999 nM.

As for `Nc1cc(N2CCC[C@@H](NC(=O)[C@H](Nc3cc(F)cc(Cl)c3)C3CC3)C2)ncn1` [Example 314], the concentration for half-maximal inhibition (IC50) lay in the range of 100 to 999 nM.

Molecule `CC(C)Oc1cccc(NCC(=O)N[C@@H]2CCCN(c3ncnc4[nH]ccc34)C2)c1` [Example 315] came in with a 50% inhibitory concentration (IC50) of 100 to 999 nM.

Consider `CCOc1cccc(NCC(=O)N[C@@H]2CCCN(c3ncnc4[nH]ccc34)C2)c1` [Example 316], for which the IC50 lay within 100 to 999 nM.

In turn, `O=C(CNc1ccc(Cl)cc1Cl)N[C@@H]1CCCN(c2ncnc3[nH]ccc23)C1` [Example 317] had an IC50 of 100 to 999 nM.

The molecule `O=C(CNc1ccccc1F)N[C@@H]1CCCN(c2ncnc3[nH]ccc23)C1` [Example 318] had an IC50 of 100 to 999 nM.

In turn, `O=C(CNc1cc(Cl)ccc1Cl)N[C@@H]1CCCN(c2ncnc3[nH]ccc23)C1` [Example 319] returned a 50% inhibitory concentration (IC50) of 100 to 999 nM.

Regarding `Nc1ncnc(N2CCC[C@@H](NC(=O)CNc3cc(Cl)cc(Cl)c3)C2)c1CCCO` [Example 320], the 50% inhibitory concentration (IC50) was 100 to 999 nM.
